Measurements published in patent US20070071717A1, “Treatment of B cells with IL-21 and B cell activators induces Granzyme B production” (University of Iowa Research Foundation, priority 2005, published 2007).

Legend:
IL-21 receptor = test: Flow cytometry of IL-21 receptor protein on B-CLL cells; type: cell-based, human; settings: after 4 and 7 days of incubation, ODN 2.5 μg/ml, FACS
Method: (§1) Flow cytometry. Antibodies to CD5, CD19, CD27 as well as CD107a were purchased from BD Bioscoences (San Diego, Calif.). IL-21 receptor protein expression was detected using a mAB (clone 152512) from R&D Systems (Minneapolis, Minn.). PKH26 staining was used to identify untreated cells in bystander assays. B-CLL cells were resuspended at a density of 1×10^7 cells/ml in diluent C containing 2 μM PKH26 (both from Sigma, Saint Louis, Mo.). After 3 minutes, the reaction was stopped by adding an equal volume of FBS (HyClone, Ogden, Utah). Subsequently cells were washed 3 times and finally resuspended in AIM-V medium. For flow cytometric Granzyme and Perforin detection, cells were incubated at 1×10^6/ml for 13 hrs, Brefeldin A (Epicentre Technologies, Madison, Wis.) added to a final concentration of […], and cells cultured for 5 more hours. Intracellular staining was performed using a Fix and Perm kit (Caltag Laboratories, Burlingame, Calif.) according to the manufacturer's instructions. Briefly, cells were washed once and resuspended in Fixation Buffer, incubated for 15 minutes at room temperature and washed with PBS. […] Flow cytometric analyses were performed on a FACScan (Becton Dickinson Immunocytometry Systems, San Jose, Calif.) and data analyzed using the program FlowJo (version 6.4.1, Tree Star Inc., Stanford, Calif.).

B-CLL cells [1] = test: Intracellular flow cytometry for Granzyme B, Granzyme A and Perforin in B-CLL cells; type: cell-based, human; settings: 18 hours, Brefeldin A for the last hours
Method: Flow cytometry. […] For flow cytometric Granzyme and Perforin detection, cells were incubated at 1×10^6/ml for 13 hrs, Brefeldin A (Epicentre Technologies, Madison, Wis.) added to a final concentration of 1 mg/ml, and cells cultured for 5 more hours. Intracellular staining was performed using a Fix and Perm kit (Caltag Laboratories, Burlingame, Calif.) according to the manufacturer's instructions. Briefly, cells were washed once and resuspended in Fixation Buffer, incubated for 15 minutes at room temperature and washed with PBS. Cells were then resuspended in Permeabilization Buffer and PE- or FITC-labeled antibodies to Granzyme B (clone GB12; Caltag Laboratories), Perforin (clone dG9; BD Pharmingen), Granzyme A (clone CB9; BD Pharmingen) or suitable control antibodies were added. After another 15 minute incubation at room temperature, cells were washed with PBS. Flow cytometric analyses were performed on a FACScan (Becton Dickinson Immunocytometry Systems, San Jose, Calif.) and data analyzed using the program FlowJo (version 6.4.1, Tree Star Inc., Stanford, Calif.).

[2] = tested on: benign peripheral blood B cells; test: Granzyme B flow cytometry and ELISpot with purified benign peripheral B cells; type: cell-based, human
Method: as §1, with “hours.” for “hours. Intracellular staining was performed using a Fix and Perm kit (Caltag Laboratories, Burlingame, Calif.) according to the manufacturer's instructions. Briefly, cells were washed once and resuspended in Fixation Buffer, incubated for 15 minutes at room temperature and washed with PBS.”
Elispot assays for human Granzyme B and Perforin. […] Plates were dried completely, and spots read on an Immunospot Series 1 Analyzer and counted using Immunospot 3 software, both from C.T.L. Cellular Technology Ltd. (Cleveland, Ohio).

Purified B cells = test: RT-PCR for granzyme B and perforin in purified B cells; type: cell-based, human; settings: 18 hours, with or without anti-BCR antibodies
Method: Purified B cells (purity >99.9%) were cultured for 18 hours in the presence or absence of IL-21 and B cell receptor stimulation (anti-BCR antibodies). Subsequently RNA was isolated and real time RT-PCR with specific primers and probes for granzyme B and perforin was performed. In addition to real time RT-PCR, conventional RT-PCR was also performed and PCR products were run on a gel. The expected amplicon sized are 218 bp (base pairs) and 146 bp for granzyme B and perforin respectively.

B-CLL cells [3] = test: Flow cytometric apoptosis / cell survival assay (Annexin V, PI) of B-CLL cells; type: cell-based, human
Method: Apoptosis and cell survival assay. Cells were harvested at the indicated time points by staining all cells from a given well with mAb for CD19, CD5 and FITC-labeled Annexin V (BD Biosciences, San Diego, Calif.). A predetermined number of calibration beads (CaliBRITE™ Beads, BD Biosciences, San Diego, Calif.) were then added to each sample to allow for normalization of cell counts in different samples at different time points.
(§2) Flow cytometric apoptosis assays. Cells were stained with Annexin V (BD Biosciences, San Diego, Calif.), or cell-permeable fluorogenic substrates specific for Granzyme B or Caspase 6 for 1 hour at room temperature according to the manufacturer's instructions (Oncolmmunin, Gaithersburg. Md.). A pre-determined number of calibration beads (CaliBRITE™ Beads, BD Biosciences, San Diego, Calif.) was added to each sample to allow for normalization of cell counts at different time points. Propidium iodide at 1 μg/ml was added just prior to flow cytometric analysis. The count of viable cells rather than the count of apoptotic cells was used for the calculation of cell survival because of concerns some non-viable cells may have undergone lysis and not have been available for counting. Absolute cell survival was expressed as percentage of viable cell counts relative to initial plating counts.

benign B cells = test: Apoptosis / cell survival assay of benign B cells; type: cell-based, human; settings: 3 days of culture
Method: as §2, with “Apoptosis and cell survival assay. Cells were harvested at the indicated time points by staining all cells from a given well with mAb for CD19, CD5 and FITC-labeled Annexin V (BD Biosciences, San Diego, Calif.). A predetermined number of calibration beads (CaliBRITE™ Beads, BD Biosciences, San Diego, Calif.) were then added to each sample to allow for normalization of cell counts in different samples at different time points. Flow” for “Flow”

[4] = tested on: untreated, bystander B-CLL cells; test: Bystander cell killing assay with autologous B-CLL cells; type: cell-based, human; settings: 24 hours treatment, washed, 2 days co-culture
Method: Bystander cell assay. Cells were harvested from CLL subjects and separated into aliquots. One aliquot was treated with CpG ODN, IL-21 or both, while a second was untreated but labeled with a membrane dye. Both aliquots were washed thoroughly, and mixed together in the indicated ratio. Cells were harvested after two days, and the number of viable cells in each aliquot determined by gating on the stained or unstained cells.
Flow cytometry. Antibodies to CD5, CD19, CD27 as well as CD107a were purchased from BD Bioscoences (San Diego, Calif.). IL-21 receptor protein expression was detected using a mAB (clone 152512) from R&D Systems (Minneapolis, Minn.). PKH26 staining was used to identify untreated cells in bystander assays. B-CLL cells were resuspended at a density of 1×10^7 cells/ml in diluent C containing 2 μM PKH26 (both from Sigma, Saint Louis, Mo.). […] Flow cytometric analyses were performed on a FACScan (Becton Dickinson Immunocytometry Systems, San Jose, Calif.) and data analyzed using the program FlowJo (version 6.4.1, Tree Star Inc., Stanford, Calif.).
B-CLL cells treated with CpG ODN and IL-21 can kill untreated autologous cells. […] The inventors next evaluated whether B-CLL cells treated with IL-21 and CpG ODN have the potential to kill. […] The survival of the unstained, untreated cells was then evaluated by flow cytometry.

[5] = tested on: Daudi cells (pre-B cell line); test: IFN-γ ELISpot with Daudi cells; type: cell-based; settings: 10^5 cells/well, 16 hours
Method: Daudi cells (pre-B cell line) were incubated on IFN-γ-ELISpot plates in the presence of IL-21, CpG ODN, B cell receptor stimulation or various combinations at a cell concentration of 10^5 cells/well. After 16 hours plates were developed and analyzed.

Substance | IL-21 receptor protein levels on B-CLL cells (IL-21 receptor) | Granzyme B(+) B-CLL cells, flow cytometry gating on CD19(+) (B-CLL cells [1]) | Granzyme B expression by highly purified (99.9%) benign B cells [2] | transcription of the gene for granzyme B in B cells (Purified B cells) | transcription of the gene for perforin in B cells (Purified B cells) | apoptosis of B-CLL cells (B-CLL cells [3]; 4 days, Annexin V and PI) | ED50 to induce apoptosis of B-CLL cells (B-CLL cells [3]; agent alone, 4 days) [µg/mL] | apoptosis of CD5-negative, atypical B-CLL (B-CLL cells [3]; preliminary, unpublished results) | apoptosis of benign B cells (benign B cells) | killing of untreated autologous bystander B-CLL cells by treated B-CLL cells [4] | secretion of interferon-γ by Daudi cells [5]
control ODN: phosphorothioate-phosphodiester-modified control oligodeoxynucleotide 2243, 5′-GGGGGAGCATGCTGGGGGGG-3′ (SEQ ID NO:5) (DNA GGGGGAGCATGCTGGGGGGG; DNA, backbone and methylation of C not given here; phosphorothioate-phosphodiester chimeric backbone) | no detectable effect |  |  |  |  |  |  |  |  |  | 
IL-21: cytokine of 131 residues (SEQ ID NO:1); Human IL-21 purchased from BioSource |  | rare Granzyme B(+) B cells | induced expression of Granzyme B | induces transcription | induces transcription | induced some apoptosis | 0.04 | do not undergo apoptosis | Neither IL-21 alone nor IL-21 plus CpG ODN induced apoptosis | No such bystander effect | induces the secretion
